Results as given in patent US20230075368A1, “IDENTIFICATION OF AN EGFR-BIN3 PATHWAY THAT ACTIVELY SUPPRESSES INVASION AND REDUCES TUMOR SIZE IN GLIOBLASTOMA” (The United States Govemment as represented by the …, priority 2020, published 2023).

Tested on: Mayo PDX cells
Assay: Matrigel invasion assay
Type: cell-based, human
Protocol: Invasion status of cells was tested with Matrigel Boyden chamber assays (Fisher). 1×10^5 cells were plated on BD BioCoat Matrigel invasion chambers. 24 hours after treatment with drugs, invaded cells were stained with the HEMA-3 kit (Fisher). Invaded cells were counted in 4-5 random fields.
An equal number of cells (5×10^4) were seeded on Matrigel coated inserts, and were untreated (control vehicle) or stimulated with 50 ng/ml EGF for 24 hours, cells invading to the other side of the membrane were counted and presented as percentage cell invasion. […] A similar invasion assay was conducted on GBM26 cells (FIG. 2D). […] Cells were transfected with EGFR or scrambled siRNA for 48 hours before the invasion assay. A similar invasion assay was performed on GBM6 (FIG. 2G). […] Cells were transiently transfected with empty or EGFR wildtype (EGFRwt) overexpressing vector, and invasion assay was performed after 48 hours after transfection. […] Cells were treated with or without 50 ng/ml EGF for 48 hours before the assay. The Western blot images are representative of three independent biological replicates. Actin served as loading control. Data are represented as mean±SEM from three independent experiments. *P<0.05, **P<0.01, n.s. not significant, unpaired two-tailed Student's t-test.
FIG. 3C and FIG. 3D show the results of a Matrigel invasion assay of EGFR siRNA knockdown in GBM12 and GBM6 in response to EGF. Cells were treated with EGFR or scrambled siRNA for 48 hours, transfected cells were seeded on Matrigel coated inserts and were treated with or without 50 ng/ml EGF for 24 hours. […] Cells were transiently transfected with EGFRvIII expression or empty vector, invasion assay was performed 48 hours after transfection. […] Western blot images are representative of three independent biological replicates. Actin served as a loading control. Data are represented as mean±SEM from three independent experiments. […], **P<0.01, ***P<0.001, n.s. not significant, unpaired two-tailed t-test.

Compound: C#Cc1cccc(Nc2ncnc3cc(OCCOC)c(OCCOC)cc23)c1 [erlotinib, Erlotinib]
- cell invasion (erlotinib 1 μM, 24 hours, GBM12, GBM26): suppressed the invasiveness
- cell invasion (erlotinib, 48 h): returns to baseline
